Data taken from article PMC4294381, “Metformin repositioning as antitumoral agent: selective antiproliferative effects in human glioblastoma stem cells, via inhibition of CLIC1-mediated ion current” (Oncotarget, 2014).

Tests used:
Format in all cases: cell-based
[1] = biological target: T1, chloride intracellular channel-1 (CLIC1) (Homo sapiens, UniProt O00299); test: whole-cell patch clamp in transfected CHO cells; set-up: FLAG-tagged CLIC1-wt expressed in CHO cells
[2] = biological target: T2, chloride intracellular channel-1 (CLIC1) (Homo sapiens, UniProt O00299, R29A); test: whole-cell patch clamp in transfected CHO cells
T2 construct: FLAG-tagged CLIC1 R29A expressed in CHO cells

[3] = biological target: T3, chloride intracellular channel-1 (CLIC1) (Homo sapiens, UniProt O00299, K37A); test: whole-cell patch clamp in transfected CHO cells, metformin […]
T3 construct: FLAG-tagged CLIC1 K37A expressed in CHO cells

[4] = biological target: T1, chloride intracellular channel-1 (CLIC1); test: patch clamp, whole-cell (U87, GBM CSC, CHO expressing human CLIC1) and outside-out single channel

Row | EC50 [1] | EC50 [2] | EC50 [4] | SMILES | whole-cell patch clamp in transfected CHO cells, metformin 10 mM [3]
1 | 27.3 µM | 29.2 µM |  | CC1(C2CCCC2)Cc2cc(OCC(=O)O)c(Cl)c(Cl)c2C1=O (stereo not shown) [IAA94] | 
2 |  |  | 2100 µM | CN(C)C(=N)N=C(N)N [Metformin] | Metformin significantly inhibited membrane current in CLIC1 wt and K37A-transfected cells (Fig. 7A and D)
